Laboratory results taken from US20240208940A1, “SMALL-MOLECULE INHIBITORS FOR BETA-CATENIN/BCELL LYMPHOMA 9 PROTEIN-PROTEIN INTERACTION” (H. LEE MOFFITT CANCER CENTER AND RESEARCH INSTITUTE, INC., priority 2021, published 2024).

Experiments:
[1] = system: FOPFlash reporter in SW480 cells; test: FOPFlash luciferase reporter assay; type: cell-based; details: testing concentrations
Experimental: (§1) Cell Transfection and Luciferase Assay. FuGENE6 (E269 Å, Promega) 96 well plate format was used for the transfection of SW480 cells according to the manufacturer's instruction. SW480 cells were co-transfected with 60 ng of the TOPFlash or FOPFlash firefly luciferase reporter gene and 40 ng of the Renilla luciferase pCMV-RL normalization reporter gene. Cells were cultured in DMEM and 10% FBS at 37° C. for 24 h, and then different concentrations of inhibitors or DMSO was added and incubated in DMEM with 5% FBS. After 24 h, the luciferase reporter activity was measured using the Dual-Glo system (E2940, Promega). Normalized luciferase activity in response to the treatment with inhibitors was compared with that obtained from the cells treated with DMSO. Experiments were performed in triplicate.

β-catenin/E-cadherin PPI = test: Cell-based co-IP, β-catenin/E-cadherin; details: HCT116 cells, 24 h; concentrations sufficient to disrupt β-catenin/BCL9 PPI
Experimental: (§2) Co-IP Experiments. HCT116 cancer cells with hyperactive β-catenin signaling at 1×10^6 cells/mL were treated with different concentrations of the inhibitor for 24 h. Cells were then lysed in buffer containing 50 mM Tris, pH 7.4, 150 mM NaCl, 1% Nonidet P-40, 2 mM EDTA and protease inhibitors. The cell lysates were pre-adsorbed to A/G plus agarose (sc-2003, Santa Cruz Biotechnology) at 4° C. for 1 h. Pre-adsorbed lysates were incubated with a specific primary antibody against β-catenin (610153, BD Biosciences) overnight at 4° C. A/G plus agarose was then added to the lysate mixture and incubated for 3 h. The beads were washed four times with buffer B (20 mM Tris pH 7.4, 150 mM NaCl, 0.1% NP-40) at 4° C. The bound protein was eluted by boiling in the SDS sample buffer and loaded onto 8% SDS polyacrylamide gel for electrophoretic analysis. Separated proteins were transferred onto nitrocellulose membranes for immunoblot analysis. The antibodies against BCL9 (ab37305, Abcam) and E-cadherin (610404, BD Biosciences) were incubated with the membranes, respectively. IRDye 680LT goat anti mouse IgG (827-11080, LiCOR) and IRDye 800CW goat anti rabbit IgG (926-32211, LiCOR) were used as the secondary antibodies. The images were detected by the Odyssey Infrared Imaging System (LiCOR). Experiments were performed in triplicate.

[2] = system: Wnt target genes Axin2, BCL9L, MMP7 in SW480 cells; test: Quantitative real-time PCR of Wnt target genes; type: cell-based, human; details: 24-h incubation
Experimental: Quantitative Real Time PCR analysis. SW480 cells at 1×10^6 cells/mL were treated with inhibitors at different concentrations for 24 h. Total RNAs were extracted with TRIzol (15596026, Life Technologies), and the cDNA was synthesized with the superscript III first-strand kit (18080-051, Invitrogen). qPCR experiments were performed using the iQ™ SYBR green supermix kit (170-8880, BIO-RAD) on an CFX96 Real Time System (BIO-RAD). The threshold cycle (CT) values were normalized to that of internal reference GAPDH. Experiments were performed in triplicate. The primer pairs are shown below

β-catenin/BCL9 PPI [3] = biological target: β-catenin/BCL9 PPI (Homo sapiens (Human), UniProt P35222); test: AlphaScreen competitive inhibition assay of β-catenin/BCL9 PPI; type: binding; details: mean ± standard deviation (n = 3)
How it was run: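 5 nM biotinylated BCL9 and 50 nM His6-β-catenin were preincubated 30 min in pH 7.4 Hepes/NaCl/Triton/BSA buffer, then with inhibitor for 1 h, then 10 μg/mL donor/acceptor beads for 1 h, with 1% DMSO. IC50 came from nonlinear fitting, and Ki was calculated from IC50 by the Wang equation.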

[4] = system: Wnt/β-catenin transactivation (TOPFlash) in SW480 cells; test: Wnt-responsive TOPFlash luciferase reporter assay; type: cell-based; details: 24 h
Experimental: as §1

Axin2 = test: Western blot of Wnt target gene protein expression; type: cell-based; details: SW480 cells, 24-h incubation
Experimental: Western Blotting of Wnt Target Genes. SW480 cells at 1×10^6 cells/mL were treated with different concentrations of inhibitors for 24 h. Cells were lysed in buffer containing 50 mM Tris (pH 7.4), 150 mM NaCl, 1% Nonidet P-40, 0.1% SDS, 0.5% sodium deoxycholate, and protease inhibitors. After centrifugation at 12,000 rpm for 20 min at 4° C., the supernatant was boiling in the SDS sample buffer and loaded onto an 8% SDS polyacrylamide gel for electrophoretic analysis. Separated proteins were transferred onto nitrocellulose membranes for immunoblot analysis. The antibodies against Axin2 (MA5-15015, Thermo Fisher) and f-tubulin (sc-55529, Santa Cruz Biotechnology) were incubated with the membranes overnight at 4° C., respectively. IRDye 680LT goat anti-mouse IgG (827-11080, LiCOR) or IRDye 800CW goat anti-rabbit IgG (827-08365, LiCOR) was used as the secondary antibody. The images were detected by the Odyssey Infrared Imaging System (LiCOR). Experiments were performed in duplicate.

β-catenin/BCL9 PPI [5] = test: Cell-based co-IP, β-catenin/BCL9; details: HCT116 cells, 24 h
Experimental: as §2

MCF10A cells = test: MTS cell growth inhibition, normal breast epithelial cells; type: cell-based, human; details: 72 h
Experimental: MTS Cell Growth Inhibition Experiments. Colorectal cancer cells (SW480 and HCT116) and triple negative breast cancer cells (MDA-MB-231 and MDA-MB-468) were seeded in 96-well plates at 5×10^3 cells/well in DMEM with 10% fetal bovine serum (FBS), maintained overnight at 37° C., and then incubated with the tested compounds at various concentrations in DMEM with 5% FBS. Human mammary epithelial MCF10A cells were seeded in 96-well plates at 1×10^4 cells/well in MEGM (CC-3150, Lonza) with 100 ng/mL cholera toxin, maintained overnight at 37° C., and incubated with the tested compounds at various concentrations. Cell viability was monitored after 72 h using a freshly prepared mixture of 1 part phenazine methosulfate (PMS, Sigma) solution (0.92 mg/mL) and 19 parts 3-(4,5-dimethylthiazol-2-yl)-5-(3-carboxymethoxyphenyl)-2-(4-sulfophenyl)-2H-tetrazolium (MTS, Promega) solution (2 mg/mL). Cells were incubated in 10 μL of this solution at 37° C. for 3 h, and the UV absorption at 490 nm (A490) was measured. The effect of each compound is expressed as the concentration required to reduce A490 by 50% (IC50) relative to DMSO-treated cells. Experiments were performed in triplicate.

β-catenin/BCL9 PPI (Homo sapiens (Human), UniProt P35222), sequence (P35222 whole entry): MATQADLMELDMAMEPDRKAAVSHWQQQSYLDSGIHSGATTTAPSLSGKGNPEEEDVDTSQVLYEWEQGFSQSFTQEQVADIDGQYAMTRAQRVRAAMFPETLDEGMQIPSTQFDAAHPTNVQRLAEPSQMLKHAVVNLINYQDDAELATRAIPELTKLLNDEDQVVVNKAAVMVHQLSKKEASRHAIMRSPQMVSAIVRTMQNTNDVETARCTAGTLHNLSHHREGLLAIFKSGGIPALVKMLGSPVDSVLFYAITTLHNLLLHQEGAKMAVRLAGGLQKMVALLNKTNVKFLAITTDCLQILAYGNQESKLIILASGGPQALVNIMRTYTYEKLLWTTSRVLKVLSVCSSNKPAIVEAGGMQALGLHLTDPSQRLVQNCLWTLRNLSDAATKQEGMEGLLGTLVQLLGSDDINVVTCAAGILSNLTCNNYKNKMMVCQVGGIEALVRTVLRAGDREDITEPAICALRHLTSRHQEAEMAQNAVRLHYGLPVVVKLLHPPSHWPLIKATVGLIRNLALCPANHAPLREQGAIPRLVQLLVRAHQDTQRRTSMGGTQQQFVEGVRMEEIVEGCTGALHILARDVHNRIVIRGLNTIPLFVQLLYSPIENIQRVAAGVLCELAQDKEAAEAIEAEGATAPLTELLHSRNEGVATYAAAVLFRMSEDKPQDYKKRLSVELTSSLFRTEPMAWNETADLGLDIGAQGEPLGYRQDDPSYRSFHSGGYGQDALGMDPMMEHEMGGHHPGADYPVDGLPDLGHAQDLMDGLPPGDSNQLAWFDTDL

In the case of `CC(C)(C)[C@H]1CC[C@@H](c2cc(C(=O)N3CCC(Oc4cc(N5CCNCC5)ccc4C#N)CC3)ccc2O[C@H]2CCNC2)CC1` [Compound 44], the FOPFlash luciferase activity [1] is reported as “not affected”, the “effect on β-catenin/E-cadherin PPI (co-IP)” value (β-catenin/E-cadherin PPI) is reported as “did not affect the β-catenin/E-cadherin PPI” and the “effect on house-keeper gene HPRT (qPCR)” value [2] is reported as “no effect”. The “transcription of Wnt target genes Axin2, BCL9L, MMP7 (qPCR)” value [2] was “downregulated transcriptions”, the Ki (β-catenin/BCL9 PPI [3]; derived from IC50, read-out: Ki ± SD) was ≤ 2000 nM and the IC50 (β-catenin/BCL9 PPI [3]) was ≤ 2000 nM. The IC50 [4] was 2600 nM, the “protein expression level of Axin2” value (Axin2) was “significant decreased” and the “disruption of β-catenin/BCL9 interaction (co-IP)” value (β-catenin/BCL9 PPI [5]) was “effectively disrupted β-catenin/BCL9 interaction”. For the same molecule, the “selectivity over normal breast epithelial MCF10A cells” value (MCF10A cells) was > 4 fold.
